Patent publication US9980943B2, “Methods of treating muscular dystrophy” (BOARD OF REGENTS OF THE NEVADA SYSTEM OF HIGHER EDUCATION, …, priority 2013, dated 2018)

Experiments:
Format in all cases: cell-based, mouse
[1] = tested on: α7 integrin (LacZ reporter in α7βgal+/− myoblasts); assay: Myoblast α7+/LacZ integrin FDG assay (Burkin assay in myoblasts, 96-well); conditions: α7+/LacZ myoblasts, 96-well
[2] = tested on: α7 integrin (LacZ reporter in α7+/LacZ myotubes); assay: Myotube α7 integrin FDG assay (Burkin assay in myotubes, 96-well); conditions: myotubes
[3] = tested on: β-galactosidase in CMV-LacZ C2C12 myoblasts; assay: CMV-LacZ secondary screen in C2C12 myoblasts (β-Gal stabilizing assay); conditions: CMV-LacZ C2C12 myoblasts
Excerpt: In order to determine compounds that acted to stabilize β-gal in myogenic cells, a CMV-LacZ C2C12 cell line was used in a secondary screen. The EGFP gene from the pEGFP (Clontech) vector was replaced by LACZ PCR product with digests of the vector/PCR product performed using EcoRI (NEB) and NotI (NEB) and ligated using T4 DNA Ligase (NEB) following standard procedures to produce the CMV-LACZ vector. The LACZ gene was generated by PCR from the pBK-RSV (Stratagene) vector using primers LACZ EcoRI F- and LACZ NotI R-. The CMV-LACZ vector was then digested with AfIII (NEB) to linearize the construct, which was then transfected in C2C12 myoblasts using Lipofectamine 2000 (Invitrogen) following the manufacturer's instructions. […] Clonal lines were selected and screened for βgal levels using the myoblast FDG assay.
The assays were used the original 96-well format and new dose-response curves for myoblasts (N=3-6 replicates for each data point), myotubes (N=3-6 replicates for data point), and CMV-LacZ secondary assay (N=2 replicates for each data point) using concentrations of 0.5 μM, 1 μM, 5 μM, 10 μM, 20 μM, and 40 μM (Tables 9-16).

[4] = tested on: β-galactosidase in CMV-LacZ C2C12 myotubes; assay: CMV-LacZ secondary screen in C2C12 myotubes (β-Gal stabilizing assay); conditions: C2C12 CMV-LacZ myotubes, fold relative to DMSO
Procedure, shortened: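 Dose-response runs at 0.5–40 μM (0.5, 1, 5, 10, 20, 40 μM; N=2 per point) used a clonal C2C12 line carrying CMV-LacZ. Cells were assayed as myoblasts or as differentiated myotubes, and β-galactosidase levels were read with the FDG fluorogenic substrate.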

CC(C)Oc1cccc(C(=O)Nc2ccc(CN3CCOCC3)cc2)c1 [MLS000062431-01]
Burkin Assay in Myoblasts, signal relative to DMSO ([1]; 0.5 uM): 0.9542
Burkin Assay in Myoblasts, signal relative to DMSO ([1]; 1 uM): 0.9582
Burkin Assay in Myoblasts, signal relative to DMSO ([1]; 5 uM): 1.016
Burkin Assay in Myoblasts, signal relative to DMSO ([1]; 10 uM): 1.209
Burkin Assay in Myoblasts, signal relative to DMSO ([1]; 20 uM): 1.789
Burkin Assay in Myoblasts, signal relative to DMSO ([1]; 40 uM): 0.9038
Burkin Assay in Myotubes, α7 integrin LacZ reporter signal relative to DMSO ([2]; 0.5 uM): 0.9571
Burkin Assay in Myotubes, α7 integrin LacZ reporter signal relative to DMSO ([2]; 1 uM): 0.8415
Burkin Assay in Myotubes, α7 integrin LacZ reporter signal relative to DMSO ([2]; 5 uM): 1.178
Burkin Assay in Myotubes, α7 integrin LacZ reporter signal relative to DMSO ([2]; 10 uM): 1.1989
Burkin Assay in Myotubes, α7 integrin LacZ reporter signal relative to DMSO ([2]; 20 uM): 0.7643
Burkin Assay in Myotubes, α7 integrin LacZ reporter signal relative to DMSO ([2]; 40 uM): 0.8841
CMV-LACZ in Myoblasts (β-galactosidase activity relative to DMSO) ([3]; 0.5 uM): 0.9557
CMV-LACZ in Myoblasts (β-galactosidase activity relative to DMSO) ([3]; 1 uM): 1.1631
CMV-LACZ in Myoblasts (β-galactosidase activity relative to DMSO) ([3]; 5 uM): 0.9848
CMV-LACZ in Myoblasts (β-galactosidase activity relative to DMSO) ([3]; 10 uM): 1.1632
CMV-LACZ in Myoblasts (β-galactosidase activity relative to DMSO) ([3]; 20 uM): 1.0467
CMV-LACZ in Myoblasts (β-galactosidase activity relative to DMSO) ([3]; 40 uM): 1.0993
CMV-LACZ in Myotubes, signal relative to DMSO ([4]; 0.5 uM): 0.9133
CMV-LACZ in Myotubes, signal relative to DMSO ([4]; 1 uM): 0.9743
CMV-LACZ in Myotubes, signal relative to DMSO ([4]; 5 uM): 0.9004
CMV-LACZ in Myotubes, signal relative to DMSO ([4]; 10 uM): 0.9690
CMV-LACZ in Myotubes, signal relative to DMSO ([4]; 20 uM): 0.8812
CMV-LACZ in Myotubes, signal relative to DMSO ([4]; 40 uM): 1.2047

c1ccc(-c2nn[nH]n2)nc1 [MLS000767397-01]
Burkin Assay in Myoblasts, signal relative to DMSO ([1]; 0.5 uM): 0.8862
Burkin Assay in Myoblasts, signal relative to DMSO ([1]; 1 uM): 0.839
Burkin Assay in Myoblasts, signal relative to DMSO ([1]; 5 uM): 1.476
Burkin Assay in Myoblasts, signal relative to DMSO ([1]; 10 uM): 0.9334
Burkin Assay in Myoblasts, signal relative to DMSO ([1]; 20 uM): 1.613
Burkin Assay in Myoblasts, signal relative to DMSO ([1]; 40 uM): 0.9754
Burkin Assay in Myotubes, α7 integrin LacZ reporter signal relative to DMSO ([2]; 0.5 uM): 0.9294
Burkin Assay in Myotubes, α7 integrin LacZ reporter signal relative to DMSO ([2]; 1 uM): 0.9481
Burkin Assay in Myotubes, α7 integrin LacZ reporter signal relative to DMSO ([2]; 5 uM): 1.004
Burkin Assay in Myotubes, α7 integrin LacZ reporter signal relative to DMSO ([2]; 10 uM): 1.0608
Burkin Assay in Myotubes, α7 integrin LacZ reporter signal relative to DMSO ([2]; 20 uM): 0.9993
Burkin Assay in Myotubes, α7 integrin LacZ reporter signal relative to DMSO ([2]; 40 uM): 1.014
CMV-LACZ in Myoblasts (β-galactosidase activity relative to DMSO) ([3]; 0.5 uM): 1.2748
CMV-LACZ in Myoblasts (β-galactosidase activity relative to DMSO) ([3]; 1 uM): 1.0646
CMV-LACZ in Myoblasts (β-galactosidase activity relative to DMSO) ([3]; 5 uM): 0.9910
CMV-LACZ in Myoblasts (β-galactosidase activity relative to DMSO) ([3]; 10 uM): 0.9687
CMV-LACZ in Myoblasts (β-galactosidase activity relative to DMSO) ([3]; 20 uM): 0.8485
CMV-LACZ in Myoblasts (β-galactosidase activity relative to DMSO) ([3]; 40 uM): 1.1433
CMV-LACZ in Myotubes, signal relative to DMSO ([4]; 0.5 uM): 0.8737
CMV-LACZ in Myotubes, signal relative to DMSO ([4]; 1 uM): 1.0368
CMV-LACZ in Myotubes, signal relative to DMSO ([4]; 5 uM): 0.9425
CMV-LACZ in Myotubes, signal relative to DMSO ([4]; 10 uM): 0.9519
CMV-LACZ in Myotubes, signal relative to DMSO ([4]; 20 uM): 1.0144
CMV-LACZ in Myotubes, signal relative to DMSO ([4]; 40 uM): 1.0067

CC(NC(=O)c1ccc(C(C)(C)C)cc1)C(c1cccs1)N1CCOCC1 (stereo not drawn) [MLS001167281-01]
Burkin Assay in Myoblasts, signal relative to DMSO ([1]; 0.5 uM): 1.089
Burkin Assay in Myoblasts, signal relative to DMSO ([1]; 1 uM): 1.18
Burkin Assay in Myoblasts, signal relative to DMSO ([1]; 5 uM): 1.075
Burkin Assay in Myoblasts, signal relative to DMSO ([1]; 10 uM): 0.9776
Burkin Assay in Myoblasts, signal relative to DMSO ([1]; 20 uM): 0.8869
Burkin Assay in Myoblasts, signal relative to DMSO ([1]; 40 uM): 0.8618
Burkin Assay in Myotubes, α7 integrin LacZ reporter signal relative to DMSO ([2]; 0.5 uM): 1.063
Burkin Assay in Myotubes, α7 integrin LacZ reporter signal relative to DMSO ([2]; 1 uM): 1.054
Burkin Assay in Myotubes, α7 integrin LacZ reporter signal relative to DMSO ([2]; 5 uM): 1.074
Burkin Assay in Myotubes, α7 integrin LacZ reporter signal relative to DMSO ([2]; 10 uM): 1.142
Burkin Assay in Myotubes, α7 integrin LacZ reporter signal relative to DMSO ([2]; 20 uM): 0.8293
Burkin Assay in Myotubes, α7 integrin LacZ reporter signal relative to DMSO ([2]; 40 uM): 0.8345
CMV-LACZ in Myoblasts (β-galactosidase activity relative to DMSO) ([3]; 0.5 uM): 1.0114
CMV-LACZ in Myoblasts (β-galactosidase activity relative to DMSO) ([3]; 1 uM): 1.1289
CMV-LACZ in Myoblasts (β-galactosidase activity relative to DMSO) ([3]; 5 uM): 0.9684
CMV-LACZ in Myoblasts (β-galactosidase activity relative to DMSO) ([3]; 10 uM): 1.1951
CMV-LACZ in Myoblasts (β-galactosidase activity relative to DMSO) ([3]; 20 uM): 0.9256
CMV-LACZ in Myoblasts (β-galactosidase activity relative to DMSO) ([3]; 40 uM): 0.7467
CMV-LACZ in Myotubes, signal relative to DMSO ([4]; 0.5 uM): 1.0663
CMV-LACZ in Myotubes, signal relative to DMSO ([4]; 1 uM): 1.0789
CMV-LACZ in Myotubes, signal relative to DMSO ([4]; 5 uM): 0.8948
CMV-LACZ in Myotubes, signal relative to DMSO ([4]; 10 uM): 0.9727
CMV-LACZ in Myotubes, signal relative to DMSO ([4]; 20 uM): 1.1089
CMV-LACZ in Myotubes, signal relative to DMSO ([4]; 40 uM): 0.9722

Cc1nnc(SCC(=O)c2ccc(Br)cc2)s1 [MLS000420298-01]
Burkin Assay in Myoblasts, signal relative to DMSO ([1]; 0.5 uM): 1.379
Burkin Assay in Myoblasts, signal relative to DMSO ([1]; 1 uM): 1.243
Burkin Assay in Myoblasts, signal relative to DMSO ([1]; 5 uM): 1.083
Burkin Assay in Myoblasts, signal relative to DMSO ([1]; 10 uM): 1.1
Burkin Assay in Myoblasts, signal relative to DMSO ([1]; 20 uM): 1.111
Burkin Assay in Myoblasts, signal relative to DMSO ([1]; 40 uM): 0.9235
Burkin Assay in Myotubes, α7 integrin LacZ reporter signal relative to DMSO ([2]; 0.5 uM): 0.9538
Burkin Assay in Myotubes, α7 integrin LacZ reporter signal relative to DMSO ([2]; 1 uM): 1.0464
Burkin Assay in Myotubes, α7 integrin LacZ reporter signal relative to DMSO ([2]; 5 uM): 0.9453
Burkin Assay in Myotubes, α7 integrin LacZ reporter signal relative to DMSO ([2]; 10 uM): 0.9005
Burkin Assay in Myotubes, α7 integrin LacZ reporter signal relative to DMSO ([2]; 20 uM): 0.91
Burkin Assay in Myotubes, α7 integrin LacZ reporter signal relative to DMSO ([2]; 40 uM): 1.006
CMV-LACZ in Myoblasts (β-galactosidase activity relative to DMSO) ([3]; 0.5 uM): 1.2808
CMV-LACZ in Myoblasts (β-galactosidase activity relative to DMSO) ([3]; 1 uM): 0.9383
CMV-LACZ in Myoblasts (β-galactosidase activity relative to DMSO) ([3]; 5 uM): 0.8414
CMV-LACZ in Myoblasts (β-galactosidase activity relative to DMSO) ([3]; 10 uM): 1.0482
CMV-LACZ in Myoblasts (β-galactosidase activity relative to DMSO) ([3]; 20 uM): 0.9807
CMV-LACZ in Myoblasts (β-galactosidase activity relative to DMSO) ([3]; 40 uM): 1.1930
CMV-LACZ in Myotubes, signal relative to DMSO ([4]; 0.5 uM): 0.9573
CMV-LACZ in Myotubes, signal relative to DMSO ([4]; 1 uM): 0.8527
CMV-LACZ in Myotubes, signal relative to DMSO ([4]; 5 uM): 1.0338
CMV-LACZ in Myotubes, signal relative to DMSO ([4]; 10 uM): 1.2388
CMV-LACZ in Myotubes, signal relative to DMSO ([4]; 20 uM): 1.3660
CMV-LACZ in Myotubes, signal relative to DMSO ([4]; 40 uM): 1.1250
